*1 amine or outer side, *2 acyl side, *3 side chain or, on linkers, in order; H or OH if unused. Where a SMILES comes first, the peptide text is derived from it. The star is where a group is joined. pNA = O=[N+]([O-])c1ccc(N*)cc1; Suc = O=C(CCC(=O)[*:2])[*:1]

For the assay, the system named is SGPC. In words: Substrate specificity of SGPC with tetrapeptide substrates sAAPXpNA. The class given is biochemical, Streptomyces griseus. The note with it: pH 8.0, 10% DMSO, 24° C. The method, then: The enzyme was assayed with a series of tetrapeptide substrates which had the form succinyl-Ala-Ala-Pro-X-para-nitroanilide (sAAPXpNA) (SEQ ID NOS. 3-20), where X is the P1 amino acid (the residue found on the N-terminal side of the bond which is cleaved). Kinetics constants kcat and Km were determined by assaying an appropriate dilution of SGPC with eight different concentrations of each substrate. Each substrate was dissolved in 100% DMSO to a concentration of 100 mM with the exception of sAAPQpNA (SEQ ID NO. 13) which was soluble only to a concentration of 15 mM. Five ul of an appropriate dilution of SGPC was placed in the wells of a microtiter dish. The reaction was initiated by adding 95 ul of the reaction mixture which was comprised of 50 ul of sodium bicine, pH 8.0, 35 ul of water, and 10 ul of the appropriate concentration of substrate in DMSO. The final concentration of DMSO was 10% in all of the reactions. All substrate concentrations were done in triplicate and rates were determined at 24° C. using a microtiter plate reader.
As for `C[C@H](NC(=O)CCC(=O)O)C(=O)N[C@@H](C)C(=O)N1CCC[C@H]1C(=O)N[C@@H](CCCNC(=N)N)C(=O)Nc1ccc([N+](=O)[O-])cc1` [sAAPRpNA] (Suc-AAPR-pNA), the Km worked out at 4.17 mM, the kcat turned out to be 16.7 S^-1 and the “kcat /Km” value was 4,001 M^-1 S^-1.

For the compound `C[C@H](NC(=O)CCC(=O)O)C(=O)N[C@@H](C)C(=O)N1CCC[C@H]1C(=O)N[C@@H](Cc1cnc[nH]1)C(=O)Nc1ccc([N+](=O)[O-])cc1` [sAAPHpNA] (Suc-AAPH-pNA), the Km came out at 1.09 mM, the kcat is on record as 24.0 S^-1 and the “kcat /Km” value is on record as 21,960 M^-1 S^-1.

On to `C[C@H](NC(=O)CCC(=O)O)C(=O)N[C@@H](C)C(=O)N1CCC[C@H]1C(=O)N[C@@H](C)C(=O)Nc1ccc([N+](=O)[O-])cc1` [sAAPApNA] (Suc-AAPA-pNA), for which the Km is 5.29 mM, the kcat is 36.1 S^-1 and the “kcat /Km” value is recorded as 6,826 M^-1 S^-1.

As to `C[C@H](NC(=O)CCC(=O)O)C(=O)N[C@@H](C)C(=O)N1CCC[C@H]1C(=O)N[C@@H](CCC(N)=O)C(=O)Nc1ccc([N+](=O)[O-])cc1` [sAAPQpNA] (Suc-AAPQ-pNA), the Km came to 14.3 mM, the kcat is 36.3 S^-1 and the “kcat /Km” value is given as 2,547 M^-1 S^-1.

On to `C[C@H](NC(=O)CCC(=O)O)C(=O)N[C@@H](C)C(=O)N1CCC[C@H]1C(=O)N[C@H](C(=O)Nc1ccc([N+](=O)[O-])cc1)[C@@H](C)O` [sAAPTpNA] (Suc-AAPT-pNA), for which the Km is 4.34 mM, the kcat came out at 7.69 S^-1 and the “kcat /Km” value was 1,769 M^-1 S^-1.

`C[C@H](NC(=O)CCC(=O)O)C(=O)N[C@@H](C)C(=O)N1CCC[C@H]1C(=O)NCC(=O)Nc1ccc([N+](=O)[O-])cc1` [sAAPGpNA] (Suc-AAPG-pNA): the “rates seen with the substrate” value was “too samll to be reliable”.

As for `C[C@H](NC(=O)CCC(=O)O)C(=O)N[C@@H](C)C(=O)N1CCC[C@H]1C(=O)N[C@@H](Cc1ccc(O)cc1)C(=O)Nc1ccc([N+](=O)[O-])cc1` [sAAPYpNA] (Suc-AAPY-pNA), the Km turned out to be 0.49 mM, the kcat came out at 27.7 S^-1 and the “kcat /Km” value is listed as 61,770 M^-1 S^-1.

Consider `C[C@H](NC(=O)CCC(=O)O)C(=O)N[C@@H](C)C(=O)N1CCC[C@H]1C(=O)N[C@@H](CCCCN)C(=O)Nc1ccc([N+](=O)[O-])cc1` [sAAPKpNA] (Suc-AAPK-pNA), for which the Km worked out at 4.22 mM, the kcat was determined as 10.9 S^-1 and the “kcat /Km” value is recorded as 2,577 M^-1 S^-1.

In the case of `CSCC[C@H](NC(=O)[C@@H]1CCCN1C(=O)[C@H](C)NC(=O)[C@H](C)NC(=O)CCC(=O)O)C(=O)Nc1ccc([N+](=O)[O-])cc1` [sAAPMpNA] (Suc-AAPM-pNA), the Km came to 0.39 mM, the kcat is 39.3 S^-1 and the “kcat /Km” value is 100,400 M^-1 S^-1.

Turning to `CC[C@H](C)[C@H](NC(=O)[C@@H]1CCCN1C(=O)[C@H](C)NC(=O)[C@H](C)NC(=O)CCC(=O)O)C(=O)Nc1ccc([N+](=O)[O-])cc1` [sAAPIpNA] (Suc-AAPI-pNA), the “rates seen with the substrate” value is recorded as “too samll to be reliable”.

Turning to `C[C@H](NC(=O)CCC(=O)O)C(=O)N[C@@H](C)C(=O)N1CCC[C@H]1C(=O)N[C@@H](CC(=O)O)C(=O)Nc1ccc([N+](=O)[O-])cc1` [sAAPDpNA] (Suc-AAPD-pNA), the Km is 19.6 mM, the kcat came out at 6.89 S^-1 and the “kcat /Km” value is 351 M^-1 S^-1.

On to `C[C@H](NC(=O)CCC(=O)O)C(=O)N[C@@H](C)C(=O)N1CCC[C@H]1C(=O)N[C@@H](Cc1ccccc1)C(=O)Nc1ccc([N+](=O)[O-])cc1` [sAAPFpNA, succinyl-Ala-Ala-Pro-Phe-para-nitroanilide] (Suc-AAPF-pNA), for which the Km stood at 0.29 mM, the kcat is 39.7 S^-1 and the “kcat /Km” value is 137,600 M^-1 S^-1.

(Values after patent US5646028A, “Alkaline serine protease streptomyces griseus var. alkaliphus having enhanced stability against urea or guanidine” (The Clorox Company, priority 1995, dated 1997).)
